This note sets out measurements from patent publication EP1359152B1, “Diazabicyclic derivatives as nicotinic acetylcholine receptor ligands” (ABBOTT LABORATORIES, priority 1999, dated 2000).

pKi: −log10 of the molar value. Counter-ions that a name gives are not always drawn. Like-named read-outs stand apart in the source and are kept apart here.

Test [1] has as its target T1, neuronal nicotinic acetylcholine receptors (Rattus norvegicus, UniProt P09483+P12390).
T1 construct: crude synaptic membrane preparations from whole rat brain; from tissue; host or cells: whole rat brain, crude synaptic membranes
Nature of the test: [3H]-cytisine binding to neuronal nicotinic acetylcholine receptors, crude synaptic membranes from whole rat brain. As for the experimental part:
The In Vitro protocols for determination of nicotinic acetylcholine channel receptor binding potencies of ligands were determined as follows.
Washed membranes were stored at-80 °C prior to use. Frozen aliquots were slowly thawed and resuspended in 20 volumes of buffer (containing: 120 mM NaCl, 5 mM KCI, 2 mM MgCl2, 2 mM CaCl2 and 50 mM Tris-Cl, pH 7.4 @4 °C). After centrifuging at 20,000x g for 15 minutes, the pellets were resuspended in 30 volumes of buffer.
The test compounds were dissolved in water to make 10 mM stock solutions. Each solution was then diluted (1:100) with buffer (as above) and further taken through seven serial log dilutions to produce test solutions from 10^-5 to 10^-11 M.
Samples were incubated for 60 minutes at 4 °C, then rapidly filtered through Whatman GF/B filters presoaked in 0.5% polyethyleneimine using 3 x 4 mL of ice-cold buffer. The filters are counted in 4 mL of Ecolume® (ICN). Nonspecific binding was determined in the presence of 10 µM (-)-nicotine and values were expressed as a percentage of total binding. IC50 values were determined with the RS-1 (BBN) nonlinear least squares curve-fitting program and IC50 values were converted to Ki values using the Cheng and Prusoff correction (Ki=IC50/(1+[ligand]/Kd of ligand).

The subject of a further test is mice. Nature of the test: Mouse hot plate paradigm (analgesic effect, latency until tenth jump). It is filed as in vivo. The settings on record: ip, 0.5 h, minimally effective dose among doses tested, intraperitoneal, dosed 30 minutes prior to testing, hot plate 55 °C, cut-off 180 seconds, increase in tenth jump latency relative to control, read-out: (MED). As for the experimental part:
An in vivo protocol was utilized to determine the effectiveness of nicotinic acetylcholine receptor ligands as analgesic agents in the mouse hot plate paradigm.
Separate groups of mice, (n=8/group) were utilized for each dose group. All drugs were administered by the intraperitoneal route of administration. Test drugs were dissolved in water to make a 6.2 mM stock solution. Animals were dosed with this solution (10 mL/kg body weight) for a 62 micromol/kg dose. Lower doses were administered similarly, following serial dilution of the stock solution in half-log increments. Animals were dosed 30 minutes prior to testing in the hot plate. The hotplate utilized was an automated analgesia monitor (Model #AHP16AN, Omnitech Electronics, Inc. of Columbus, Ohio). The temperature of the hot plate was maintained at 55 °C and a cut-off time of 180 seconds was utilized. Latency until the tenth jump was recorded as the dependent measure. An increase in the tenth jump latency relative to the control was considered an effect.

Setting [2] is: [3H]-CYT 1.25 nM, 60 minutes at 4 °C, whole rat brain membranes, Ki from IC50 by Cheng and Prusoff correction, read-out: Average Ki.

T1 sequence (P09483 31-630): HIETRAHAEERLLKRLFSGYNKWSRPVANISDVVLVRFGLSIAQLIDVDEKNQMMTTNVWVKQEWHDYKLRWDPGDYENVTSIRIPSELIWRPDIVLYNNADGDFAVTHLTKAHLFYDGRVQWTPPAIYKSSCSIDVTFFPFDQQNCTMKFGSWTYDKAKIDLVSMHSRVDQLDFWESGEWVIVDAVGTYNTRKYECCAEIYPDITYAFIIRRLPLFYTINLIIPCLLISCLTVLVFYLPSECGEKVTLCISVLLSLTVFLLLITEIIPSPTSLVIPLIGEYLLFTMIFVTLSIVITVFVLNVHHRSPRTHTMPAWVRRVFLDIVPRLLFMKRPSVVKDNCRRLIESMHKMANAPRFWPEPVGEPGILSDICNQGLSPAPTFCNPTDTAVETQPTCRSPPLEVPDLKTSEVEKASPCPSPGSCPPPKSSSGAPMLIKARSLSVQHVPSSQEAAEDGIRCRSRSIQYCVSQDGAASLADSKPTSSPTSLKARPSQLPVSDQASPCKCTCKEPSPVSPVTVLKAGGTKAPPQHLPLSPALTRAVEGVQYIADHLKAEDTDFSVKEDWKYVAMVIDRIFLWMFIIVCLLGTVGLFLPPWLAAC
T1 sequence (P12390 25-500): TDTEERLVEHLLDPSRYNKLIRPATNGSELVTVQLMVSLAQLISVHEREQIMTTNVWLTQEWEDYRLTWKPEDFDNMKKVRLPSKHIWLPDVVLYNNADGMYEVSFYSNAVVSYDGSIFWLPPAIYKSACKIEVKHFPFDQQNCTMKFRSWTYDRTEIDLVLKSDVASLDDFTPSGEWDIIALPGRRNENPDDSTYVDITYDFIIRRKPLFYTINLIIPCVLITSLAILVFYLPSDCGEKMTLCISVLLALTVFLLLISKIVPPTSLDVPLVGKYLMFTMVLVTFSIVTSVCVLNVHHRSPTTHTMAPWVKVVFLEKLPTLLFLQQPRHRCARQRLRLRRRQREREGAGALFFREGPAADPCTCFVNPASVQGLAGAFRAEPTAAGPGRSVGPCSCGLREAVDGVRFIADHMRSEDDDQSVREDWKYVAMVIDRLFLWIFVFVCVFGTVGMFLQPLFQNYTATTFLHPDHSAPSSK

Turning to `Clc1ccc(N2CC3CNCC(C3)C2)cn1` [Example 58, 3-(6-Chloro-3-pyridinyl)-3,7-diazabicyclo[3.3.1]nonane 4-methylbenzenesulfonate], in test [1], the pKi (in general, the negative decadic logarithm of the Ki, by convention in mol/L) is 10.70. Besides, the minimal effective dose with mice was determined as 0.62 µmol/kg. Taken in the same sequence, the figures for `N#CCN1C[C@H]2C[C@@H]1CN2c1ccc(Cl)nc1` [Example 27, (1R,4R)-2-(6-chloro-3-pyridinyl)-5-cyanomethyl-2,5-diazabicyclo[2.2.1]heptane 4-methylbenzenesulfonate] were 10.30 and 1.9 µmol/kg.

On to `c1cncc(N2CC3CNCC(C3)C2)c1` [Example 57, 3-(3-pyridinyl)-3,7-diazabicyclo[3.3.1]nonane bis(4-methylbenzenesulfonate)], for which, in test [1] (setting [2]), the negative logarithm of the Ki (pKi) is 10.70. In addition, the minimal effective dose in the test with mice is 1.9 µmol/kg. Take `Oc1cncc(N2C[C@@H]3C[C@H]2CN3)c1` [Example 22, (1S,4S)-2[5-hydroxy-3-pyridinyl]-2,5-diazabicyclo[2.2.1]heptane 4-methylbenzenesulfonate]: the pKi in test [1] was 8.39. Besides, the minimal effective dose in the test with mice came out at 19 µmol/kg.

On to `Clc1ccc(N2CCC3CC2CN3)cn1` (stereo not shown) [Example 35, 2-(6-chloro-3-pyridinyl)-2,6-diazabicyclo[3.2.1]octane trihydrochloride], for which the negative logarithm of the Ki (pKi) in test [1] (setting [2]) was 8.82. Moreover, the minimal effective dose in the test on mice was determined as 19 µmol/kg. In turn, `c1cncc(N2CCC3CCC(C2)N3)c1` (stereo not shown) [Example 41, 3-(3-pyridinyl)-3,9-diazabicyclo[4.2,1]nonane bis(4-methylbenzenesulfonate)] gave a negative-log Ki (pKi) in test [1] of 10.52. For the same compound, in the test on mice, the minimal effective dose was found to be 6.2 µmol/kg. The corresponding values for `Fc1ccc(N2C[C@H]3C[C@@H]2CN3)cn1` [Example 33, (1R,4R)-2-(6-fluoro-3-pyridinyl)-2,5-diazabicyclo[2.2.1]heptane 4-methylbenzenesulfonate] are 10.52 and 0.19 µmol/kg. The corresponding values for `Oc1cncc(N2C[C@H]3C[C@@H]2CN3)c1` [Example 39, (1R,4R)-2-(5-hydroxy-3-pyridinyl)-2,5-diazabicyclo[2.2.1]heptane 4-methylbenzenesulfonate] are 10.40 and 62 µmol/kg. The corresponding values for `Fc1ccc(N2C[C@@H]3C[C@H]2CN3)cn1` [Example 30, (1S,4S)-2-(6-fluoro-3-pyridinyl)-2,5-diazabicyclo[2.2.1]heptane bis(4-methylbenzenesulfonate)] are 9.77 and 1.9 µmol/kg. Compound `Oc1cc(N2C[C@H]3C[C@@H]2CN3)cnc1Cl` [Example 40, (1R,4R)-2-(6-chloro-5-hydroxy-3-pyridinyl)-2,5-diazabicyclo[2.2.1]heptane 4-methylbenzenesulfonate] gave a pKi in test [1] of 9.77. For the same compound, the minimal effective dose with mice stood at 19 µmol/kg.

Compound `Cc1ccc(N2C[C@@H]3C[C@H]2CN3)cn1` [Example 23, (1S,4S)-2-(6-methyl-3-pyridinyl)-2,5-diazabicyclo[2.2.1]heptane 4-methylbenzenesulfonate] showed a pKi in test [1] of 8.80. Besides, in the test on mice, the minimal effective dose came to 62 µmol/kg. The corresponding values for `c1cnnc(N2C[C@H]3C[C@@H]2CN3)c1` [Example 25, (1R,4R)-2-(3-pyridazinyl)-2,5-diazabicyclo[2,2,1]heptane 4-methylbenzenesulfonate] are 9.40 and 19 µmol/kg. In the case of `Clc1cc(N2C[C@H]3C[C@@H]2CN3)cnc1Cl` [Example 48, (1R,4R)-2-(5,6-dichloro-3-pyridinyl)-2,5-diazabicyclo[2.2.1]heptane 4-methylbenzenesulfonate], in test [1], the negative-log Ki (pKi) is 11.00. Also, in the test with mice, the minimal effective dose is 6.2 µmol/kg. In test [1], `Clc1ccc(N2CC3CC2CCN3)cn1` (stereo not shown) [Example 49, 6-(6-chloro-3-pyridinyl)-2,6-diazabicyclo[3.2.1]octane bis(4-methylbenzenesulfonate)] had a negative-log Ki (pKi) of 8.57. For the compound `Brc1cncc(N2C[C@@H]3C[C@H]2CN3)c1` [Example 31, (1S,4S)-2-(5-bromo-3-pyridinyl)-2,5-diazabicyclo[2.2.1]heptane 4-methylbenzenesulfonate], the negative logarithm of the Ki (pKi) in test [1] is 8.92. Further, in the test on mice, the minimal effective dose worked out at 62 µmol/kg. In test [1], `Clc1ccc(N2C[C@H]3C[C@@H]2CN3)cn1` [Example 15, (1R,4R)-2-(6-chloro-3-pyridinyl)-2,5-diazabicyclo[2.2.1]heptane 4-methylbenzenesulfonate] gave a pKi of 11.00. The minimal effective dose in the test on mice is 0.62 µmol/kg. In the case of `Clc1ccc(N2C[C@H]3C[C@@H]2CN3)nn1` [Example 16, (1R,4R)-2-(6-chloro-3-pyridazinyl)-2,5-diazabicyclo[2.2.1]heptane bis(4-methylbenzenesulfonate)], the minimal effective dose in the test with mice was determined as 6.2 µmol/kg. Take `CN1C2CCC1CN(c1cccnc1)CC2` (stereo not shown) [Example 37, 9-methyl-3-(3-pyridinyl)-3,9-diazabicyclo[4.2.1]nonane 4-methylbenzenesulfonate]: the negative-log Ki (pKi) in test [1] was 9.26. In the test on mice, the minimal effective dose amounted to 6.2 µmol/kg.

On to `Cc1cc(N2C[C@@H]3C[C@H]2CN3)nnc1Cl` [Example 4, (1S,4S)-2-(6-chloro-5-methyl-3-pyridazinyl)-2,5-diazabicyclo[2,2,1]heptane bis(4-methylbenzenesulfonate)], for which the negative-log Ki (pKi) in test [1] is 8.42. The minimal effective dose in the test on mice is 62 µmol/kg.

In test [1], `Cc1cc(N2C[C@@H]3C[C@H]2CN3C)nnc1Cl` [Example 6, (1S,4S)-2-(6-chloro-5-methyl-3-pyridazinyl)-5-methyl-2,5-diazabicyclo[2.2.1]heptane bis(4-methylbenzenesulfonate)] gave a pKi of 7.66.

`Clc1nnc(N2C[C@@H]3C[C@H]2CN3)c2ccccc12` [Example 7, (1S,4S)-2-(4-chloro-1-phthalazinyl)-2,5-diazabicyclo[2.2.1]heptane bis(4-methylbenzenesulfonate)]: the pKi in test [1] was 5.72. `O=[N+]([O-])c1ccc(N2CC3CC2CN3)cn1` [Example 28, (1S,4S)-2-(6-nitro-3-pyridinyl)-2.5-diazabicyclo[2.2.1]heptane]: the negative logarithm of the Ki (pKi) in test [1] (setting [2]) was 6.96. `Clc1ccc(N2C[C@@H]3C[C@H]2CN3)nc1` [Example 18, (1S,4S)-2-(5-chloro-2-pyridinyl)-2,5-diazabicyclo[2.2.1]heptane dihydrochloride, reference compound] had a pKi in test [1] of 6.40. On to `c1cncc(N2C[C@H]3C[C@@H]2CN3)c1` [Example 24, (1R,4R)-2-(3-pyridinyl)-2,5-diazabicyclo[2.2.1]heptane 4-methylbenzenesulfonate], for which the pKi in test [1] was 10.92. For the same compound, the minimal effective dose with mice was found to be 6.2 µmol/kg. The corresponding values for `Clc1ccc(N2C[C@@H]3C[C@H]2CN3)cn1` [Example 1, (1S,4S)-2-(6-chloro-3-pyridinyl)-2,5-diazabicyclo[2,2,1]heptane 4-methylbenzenesulfonate] are 10.39 and 6.2 µmol/kg.

Turning to `c1cnnc(N2C[C@@H]3C[C@H]2CN3)c1` [Example 29, (1S,4S)-2-(3-pyridazinyl)-2,5-diazabicyclo[2.2.1]heptane 4-methylbenzenesulfonate], the pKi in test [1] is 7.43. The same measure, in the same setting: then `COc1cncc(N2C[C@@H]3C[C@H]2CN3)c1` [Example 43, (1S,4S)-2-(5-methoxy-3-pyridinyl)-2,5-diazabicyclo[2.2.1]heptane bis(4-methylbenzenesulfonate)], with 9.24.

Regarding `NC(=O)c1cncc(N2CC3CC2CN3)c1` [Example 50, (1R,4R)-2-(5-aminocarbonyl-3-pyridinyl)-2.5-diazabicvclo[2.2.1]heptane bis(4-methylbenzenesulfonate)], the pKi in test [1] (setting [2]) is 9.08.

`c1cnc2cc(N3C[C@H]4C[C@@H]3CN4)sc2c1` [Example 55, (1R,4R)-2-(thieno[3,2-b]pyridin-2-yl)-2,5-diazabicyclo[2.2.1]heptane acetate] showed a pKi in test [1] of 9.08. The compound `Clc1ccc(N2CCC3CCC(C2)N3)cn1` (stereo not shown) [Example 36, 3-(6-chloro-3-pyridinyl)-3,9-diazabicyclo[4.2.1]nonane hydrochloride] gave a pKi in test [1] of 10.22. The minimal effective dose in the test with mice is 1.9 µmol/kg. For `Nc1ccc(N2CC3CCC(C2)N3)cn1` [Example 11, 3-(6-amino-3-pyridinyl)-3,8-diazabicyclo[3.2.1]octane trihydrochloride], the negative logarithm of the Ki (pKi) in test [1] was 7.43. Still for that read-out and setting: in the case of `Clc1ccc(N2C3CCNCC2CC3)cn1` (stereo not shown) [Example 56, 9-(6-chloro-3-pyridinyl)-3,9-diazabicyclo[4.2.1]nonane fumarate] it was 9.68.
